Data reported in PMC8231556, “Inhibiting Endothelial Cell Function in Normal and Tumor Angiogenesis Using BMP Type I Receptor Macrocyclic Kinase Inhibitors” (Cancers, 2021).

How the values were obtained:
Assay in all cases: radiometric kinase profiling (33 PanQinase)
Type in all cases: biochemical
RET = target: T1, RET (Homo sapiens, UniProt P07949); conditions: read-out: Inhibitory effect (%) RET
T1 construct: purchased ProQinase (33PanQinase Activity Assay)
Procedure, shortened: (§1)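 Enzyme/substrate mixes were incubated with [γ-33P]-ATP and compound (added as a 0.1 μM solution in 10% DMSO) at 30 °C for 60 min, then stopped with H3PO4 and washed with NaCl. 33P incorporation was scintillation-counted, and residual activity (%) was normalized to untreated control and background.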

NEK6 = target: T2, NEK6 (Homo sapiens, UniProt Q9HC98); conditions: read-out: Inhibitory effect (%) NEK6
T2 construct: purchased ProQinase (33PanQinase Activity Assay)
Procedure, shortened: as §1

CDK9_cyclinT1 = target: T3, CDK9_cyclinT1 (Homo sapiens, UniProt P50750); conditions: read-out: Inhibitory effect (%) CDK9_cyclinT1
T3 construct: purchased Proqinase, Germany
Procedure, shortened: as §1

AKT1 = target: T4, AKT1 (Homo sapiens, UniProt P31749); conditions: read-out: Inhibitory effect (%) AKT1
T4 construct: purchased Proqinase, Germany
Procedure, shortened: as §1

MAP3K10 = target: T5, MAP3K10 (Homo sapiens, UniProt Q02779); conditions: read-out: Inhibitory effect (%) MAP3K10
T5 construct: purchased ProQinase (33PanQinase Activity Assay)
Procedure, shortened: as §1

LRRK2 = target: T6, LRRK2 (Homo sapiens, UniProt Q5S007); conditions: read-out: Inhibitory effect (%) LRRK2
T6 construct: purchased ProQinase (33PanQinase Activity Assay)
Procedure, shortened: as §1

IKBKB = target: T7, IKBKB (Homo sapiens, UniProt O14920); conditions: read-out: Inhibitory effect (%) IKBKB
T7 construct: purchased ProQinase (33PanQinase Activity Assay)
T7 sequence (O14920 1-756): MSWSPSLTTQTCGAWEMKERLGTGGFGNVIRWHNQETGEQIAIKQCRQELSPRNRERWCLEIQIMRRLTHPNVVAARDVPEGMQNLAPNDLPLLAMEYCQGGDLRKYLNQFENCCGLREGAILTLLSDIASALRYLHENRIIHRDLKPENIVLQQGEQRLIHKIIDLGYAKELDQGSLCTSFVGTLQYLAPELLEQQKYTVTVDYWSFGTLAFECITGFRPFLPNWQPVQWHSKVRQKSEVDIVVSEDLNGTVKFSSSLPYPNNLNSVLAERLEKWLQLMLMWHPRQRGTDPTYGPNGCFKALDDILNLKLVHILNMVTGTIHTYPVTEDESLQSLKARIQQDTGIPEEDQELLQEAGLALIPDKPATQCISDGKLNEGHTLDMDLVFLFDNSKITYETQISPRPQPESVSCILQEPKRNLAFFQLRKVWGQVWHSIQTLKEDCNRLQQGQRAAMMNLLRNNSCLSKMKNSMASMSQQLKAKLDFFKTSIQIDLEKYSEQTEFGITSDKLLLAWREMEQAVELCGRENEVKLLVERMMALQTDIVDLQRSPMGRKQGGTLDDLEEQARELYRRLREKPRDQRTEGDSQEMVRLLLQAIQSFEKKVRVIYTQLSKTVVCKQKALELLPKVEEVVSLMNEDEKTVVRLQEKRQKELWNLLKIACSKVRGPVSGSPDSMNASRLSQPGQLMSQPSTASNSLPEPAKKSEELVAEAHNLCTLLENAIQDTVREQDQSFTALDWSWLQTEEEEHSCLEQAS
Procedure, shortened: as §1

CHEK1 = target: T8, CHEK1 (Homo sapiens, UniProt O14757); conditions: read-out: Inhibitory effect (%) CHEK1
T8 construct: purchased Proqinase, Germany
T8 sequence (O14757 1-476): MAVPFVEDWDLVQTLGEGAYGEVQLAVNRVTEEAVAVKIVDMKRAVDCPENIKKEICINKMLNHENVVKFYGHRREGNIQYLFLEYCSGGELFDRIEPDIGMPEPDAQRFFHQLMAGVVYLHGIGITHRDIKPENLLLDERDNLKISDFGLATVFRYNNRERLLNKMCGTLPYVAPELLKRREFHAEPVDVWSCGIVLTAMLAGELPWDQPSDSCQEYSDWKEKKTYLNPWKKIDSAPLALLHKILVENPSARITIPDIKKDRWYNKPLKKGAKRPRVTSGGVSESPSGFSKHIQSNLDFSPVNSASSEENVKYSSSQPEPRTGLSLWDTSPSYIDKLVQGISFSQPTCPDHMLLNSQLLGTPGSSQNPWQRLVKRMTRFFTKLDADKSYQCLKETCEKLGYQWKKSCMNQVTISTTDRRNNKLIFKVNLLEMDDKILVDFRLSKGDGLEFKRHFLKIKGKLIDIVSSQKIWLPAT
Procedure, shortened: as §1

MAPK3 = target: T9, MAPK3 (Homo sapiens, UniProt P27361); conditions: read-out: Inhibitory effect (%) MAPK3
T9 construct: purchased ProQinase (33PanQinase Activity Assay)
Procedure, shortened: as §1

T5 sequence (Q02779 whole entry): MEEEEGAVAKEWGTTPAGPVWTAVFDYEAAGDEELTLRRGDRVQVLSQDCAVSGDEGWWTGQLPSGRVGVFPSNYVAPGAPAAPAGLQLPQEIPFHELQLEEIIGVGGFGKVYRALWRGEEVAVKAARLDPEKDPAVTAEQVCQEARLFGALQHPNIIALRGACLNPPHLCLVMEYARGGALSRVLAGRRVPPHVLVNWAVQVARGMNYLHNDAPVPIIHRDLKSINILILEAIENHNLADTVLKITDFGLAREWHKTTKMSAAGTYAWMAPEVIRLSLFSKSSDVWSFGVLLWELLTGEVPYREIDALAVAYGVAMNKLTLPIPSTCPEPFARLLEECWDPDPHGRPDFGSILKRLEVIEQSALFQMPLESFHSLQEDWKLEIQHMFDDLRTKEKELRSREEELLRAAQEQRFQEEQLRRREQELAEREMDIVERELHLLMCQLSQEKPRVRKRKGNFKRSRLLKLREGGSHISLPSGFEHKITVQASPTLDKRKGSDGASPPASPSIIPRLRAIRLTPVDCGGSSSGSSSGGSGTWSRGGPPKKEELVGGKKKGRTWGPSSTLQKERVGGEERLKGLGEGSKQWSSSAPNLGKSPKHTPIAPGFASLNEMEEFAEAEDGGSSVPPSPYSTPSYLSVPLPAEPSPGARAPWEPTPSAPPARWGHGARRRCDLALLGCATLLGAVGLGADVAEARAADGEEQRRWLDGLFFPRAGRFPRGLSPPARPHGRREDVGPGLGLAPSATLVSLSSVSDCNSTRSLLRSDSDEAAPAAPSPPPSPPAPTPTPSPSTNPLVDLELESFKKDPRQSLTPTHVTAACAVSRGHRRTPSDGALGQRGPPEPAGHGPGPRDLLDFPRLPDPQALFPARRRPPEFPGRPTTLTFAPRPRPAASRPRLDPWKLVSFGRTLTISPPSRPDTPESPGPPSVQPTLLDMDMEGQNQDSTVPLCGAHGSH
T9 sequence (P27361 whole entry): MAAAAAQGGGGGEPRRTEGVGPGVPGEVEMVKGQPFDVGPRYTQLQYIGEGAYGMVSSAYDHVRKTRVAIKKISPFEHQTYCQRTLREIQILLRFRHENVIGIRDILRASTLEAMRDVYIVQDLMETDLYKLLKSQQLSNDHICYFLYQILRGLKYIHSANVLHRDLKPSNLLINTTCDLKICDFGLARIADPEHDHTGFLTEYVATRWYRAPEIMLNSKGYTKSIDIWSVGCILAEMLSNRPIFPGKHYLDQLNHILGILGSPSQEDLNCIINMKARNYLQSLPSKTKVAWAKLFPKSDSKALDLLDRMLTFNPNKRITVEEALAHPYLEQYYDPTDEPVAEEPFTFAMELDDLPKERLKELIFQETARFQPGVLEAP
T3 sequence (P50750 whole entry): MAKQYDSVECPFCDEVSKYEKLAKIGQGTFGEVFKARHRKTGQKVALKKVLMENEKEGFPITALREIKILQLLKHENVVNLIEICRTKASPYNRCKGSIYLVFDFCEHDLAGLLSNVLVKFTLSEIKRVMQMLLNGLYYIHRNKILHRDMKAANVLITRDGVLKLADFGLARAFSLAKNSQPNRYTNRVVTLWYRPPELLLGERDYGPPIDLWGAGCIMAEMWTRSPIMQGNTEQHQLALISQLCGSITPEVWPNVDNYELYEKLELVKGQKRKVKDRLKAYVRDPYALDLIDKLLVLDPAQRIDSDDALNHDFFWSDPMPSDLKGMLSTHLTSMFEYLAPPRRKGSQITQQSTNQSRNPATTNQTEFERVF
T3 sequence (O60563 whole entry partner): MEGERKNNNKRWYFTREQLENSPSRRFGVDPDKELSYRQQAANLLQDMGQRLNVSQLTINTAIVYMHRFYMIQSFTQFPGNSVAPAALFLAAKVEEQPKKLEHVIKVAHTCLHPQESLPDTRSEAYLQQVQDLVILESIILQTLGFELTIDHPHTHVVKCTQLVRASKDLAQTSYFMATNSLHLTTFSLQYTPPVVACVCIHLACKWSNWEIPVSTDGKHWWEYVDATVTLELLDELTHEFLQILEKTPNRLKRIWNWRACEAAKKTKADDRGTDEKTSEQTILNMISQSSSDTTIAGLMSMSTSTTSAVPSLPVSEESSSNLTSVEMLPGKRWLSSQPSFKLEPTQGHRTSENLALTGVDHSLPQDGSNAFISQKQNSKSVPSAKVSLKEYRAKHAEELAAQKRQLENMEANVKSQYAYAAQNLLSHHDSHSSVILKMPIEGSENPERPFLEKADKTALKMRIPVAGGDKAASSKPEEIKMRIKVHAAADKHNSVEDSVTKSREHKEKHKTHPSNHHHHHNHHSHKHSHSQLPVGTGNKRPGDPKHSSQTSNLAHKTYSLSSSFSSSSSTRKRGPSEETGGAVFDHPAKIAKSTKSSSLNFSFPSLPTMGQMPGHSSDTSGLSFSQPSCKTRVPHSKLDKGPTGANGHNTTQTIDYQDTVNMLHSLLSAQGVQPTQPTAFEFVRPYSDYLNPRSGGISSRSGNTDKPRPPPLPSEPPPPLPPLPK
T1 sequence (P07949 29-1114): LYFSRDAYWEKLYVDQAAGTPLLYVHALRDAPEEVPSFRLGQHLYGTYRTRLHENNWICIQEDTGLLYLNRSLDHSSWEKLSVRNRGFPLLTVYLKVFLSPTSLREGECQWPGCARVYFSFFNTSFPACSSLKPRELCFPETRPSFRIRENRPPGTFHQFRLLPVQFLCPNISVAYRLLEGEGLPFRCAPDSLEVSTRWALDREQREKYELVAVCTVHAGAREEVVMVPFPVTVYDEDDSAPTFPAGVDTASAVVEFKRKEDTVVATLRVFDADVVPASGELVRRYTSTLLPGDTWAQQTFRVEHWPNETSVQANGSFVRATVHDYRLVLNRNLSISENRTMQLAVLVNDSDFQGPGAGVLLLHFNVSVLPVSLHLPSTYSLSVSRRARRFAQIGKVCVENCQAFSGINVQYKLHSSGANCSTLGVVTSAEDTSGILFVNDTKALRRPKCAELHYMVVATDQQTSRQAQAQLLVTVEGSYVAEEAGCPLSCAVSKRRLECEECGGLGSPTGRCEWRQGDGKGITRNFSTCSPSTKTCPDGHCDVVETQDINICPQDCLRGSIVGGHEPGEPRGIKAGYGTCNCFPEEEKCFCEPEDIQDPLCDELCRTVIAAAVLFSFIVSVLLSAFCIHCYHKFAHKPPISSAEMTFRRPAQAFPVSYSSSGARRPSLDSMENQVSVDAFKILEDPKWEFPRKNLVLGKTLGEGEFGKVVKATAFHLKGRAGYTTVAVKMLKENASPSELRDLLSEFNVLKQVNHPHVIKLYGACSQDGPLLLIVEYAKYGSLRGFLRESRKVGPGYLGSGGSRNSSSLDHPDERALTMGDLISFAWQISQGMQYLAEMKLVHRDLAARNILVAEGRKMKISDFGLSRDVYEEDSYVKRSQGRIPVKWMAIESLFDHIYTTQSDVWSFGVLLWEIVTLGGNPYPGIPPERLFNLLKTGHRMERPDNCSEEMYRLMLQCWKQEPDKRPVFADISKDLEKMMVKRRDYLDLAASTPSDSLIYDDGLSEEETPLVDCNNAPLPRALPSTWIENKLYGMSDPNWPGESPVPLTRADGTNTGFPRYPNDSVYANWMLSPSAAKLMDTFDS
T4 sequence (P31749 whole entry): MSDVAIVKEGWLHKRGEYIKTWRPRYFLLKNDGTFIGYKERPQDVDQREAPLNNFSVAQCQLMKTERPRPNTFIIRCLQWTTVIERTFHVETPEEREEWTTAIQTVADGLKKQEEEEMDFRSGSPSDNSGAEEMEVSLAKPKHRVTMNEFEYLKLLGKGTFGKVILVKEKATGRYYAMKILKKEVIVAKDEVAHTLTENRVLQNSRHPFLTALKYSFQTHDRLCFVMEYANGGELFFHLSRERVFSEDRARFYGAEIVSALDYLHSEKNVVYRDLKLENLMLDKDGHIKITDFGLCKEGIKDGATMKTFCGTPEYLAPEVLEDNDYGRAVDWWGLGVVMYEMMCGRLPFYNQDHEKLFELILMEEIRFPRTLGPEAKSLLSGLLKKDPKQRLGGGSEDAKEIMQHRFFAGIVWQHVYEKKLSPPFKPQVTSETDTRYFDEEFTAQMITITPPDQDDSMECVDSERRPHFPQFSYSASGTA
T2 sequence (Q9HC98 whole entry): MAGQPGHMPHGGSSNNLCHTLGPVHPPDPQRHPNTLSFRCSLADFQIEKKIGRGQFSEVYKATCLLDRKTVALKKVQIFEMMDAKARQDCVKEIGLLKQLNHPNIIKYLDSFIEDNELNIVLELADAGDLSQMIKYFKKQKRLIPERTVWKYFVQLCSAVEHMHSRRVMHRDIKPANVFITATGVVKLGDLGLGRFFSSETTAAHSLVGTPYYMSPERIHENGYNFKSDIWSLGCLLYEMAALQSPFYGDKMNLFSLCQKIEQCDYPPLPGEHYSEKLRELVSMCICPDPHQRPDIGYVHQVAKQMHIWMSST

SMILES | inhibition at 0.1 µM (RET) | inhibition at 0.1 µM (NEK6) | inhibition at 0.1 µM (CDK9_cyclinT1) | inhibition at 0.1 µM (AKT1) | inhibition at 0.1 µM (MAP3K10) | inhibition at 0.1 µM (LRRK2) | inhibition at 0.1 µM (IKBKB) | inhibition at 0.1 µM (CHEK1) | inhibition at 0.1 µM (MAPK3)
c1ccc2c(-c3cnn4cc(-c5ccc(N6CCNCC6)cc5)cnc34)ccnc2c1 [LDN-193189, reference compound] | 10.8% | 7.05% | -26.7% | 16.1% | -26.4% | 5.16% | 1.34% | -34.6% | -8.08%
CN1CCc2cccc(c2)Nc2nccc(n2)N2CCCc3cc(ccc32)C1 [OD16] | -29.1% | -21.1% | 54.2% | -4.07% | 1.85% | 18.4% | 1.32% | 0.85% | -13.8%
CN1CCC(=O)NCCNc2ccn3ncc(c3n2)-c2cccc(c2)C1 [OD29] | 27.1% | 4.01% | -2.77% | -2.83% | 1.57% | 13.8% | -9.1% | 4.25% | -7.55%
